TGI and GI50 data for 27 molecules are collected here from PubChem BioAssay (NCI).

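Following 48 hours of exposure in 96-well plates, responses at five concentrations were used to interpolate endpoints linearly. GI50: concentration for 50% inhibition of growth. TGI is the concentration that stops growth completely.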

Test systems include DMS 114 small cell lung; MDA-MB-231 breast; T-47D breast; PC-3 prostate; MDA-N; DLD-1 colon.
Test in all cases: inhibition of tumour cell growth, NCI panel, 48 h

In turn, `O=c1c2ccccc2c2nc3ccccc3nc2n1C1CCCCC1` had a TGI in the test with DMS 114 small cell lung of over 100 µM.
For the molecule `O=C(NC1=NC2C=CC([N+](=O)[O-])=CC2S1)C(=O)Nn1c(=S)[nH]c2ccccc2c1=O` (configuration not stated), the TGI in the test with MDA-MB-231 breast, with T-47D breast, in the test with PC-3 prostate and in the test with MDA-N was over 100 µM each time.
Consider `O=C1C(=O)C(Br)(Br)C(Br)=C1Br`, for which the TGI with DLD-1 colon was 41.4 µM; in the test with DMS 114 small cell lung it was 40.8 µM.
In the case of `Nc1ccc(/C=N/Nc2ccnc3c(N)cccc23)c2cccnc12`, in the test on MDA-MB-231 breast, the GI50 is 1.6 µM and the TGI came out at 3.15 µM. In the test with T-47D breast, the GI50 was 2.27 µM and the TGI turned out to be 5.02 µM.
On to `CCOC(=O)c1c(C(F)(F)F)n([O-])c2ccc(OC)cc2[n+]1=O`, for which the GI50 with MDA-MB-231 breast is 5.38 µM; in the test with T-47D breast, 2.6 µM; with PC-3 prostate, 2.99 µM. In addition, the TGI was 51.6 µM with MDA-MB-231 breast, 8.69 µM in the test with T-47D breast and over 100 µM in the test on PC-3 prostate.
`C[C@@]12CCC(=O)C=C1CC[C@H]1C2=CC[C@]2(C)C1CC[C@@]2(C)O` (some centres not stated): the TGI with MDA-MB-231 breast, with T-47D breast, in the test with PC-3 prostate and in the test with MDA-N was over 100 µM each time.
With `NC(=S)N/N=C1/C(=O)N(c2ccc(Cl)cc2Cl)C(=O)C(=O)C1c1nc2ccccc2s1` (configuration not stated), the TGI in the test on DMS 114 small cell lung was over 100 µM.
On to `N#Cc1ccnc(N2C(=O)CC[C@H]2C(=O)N(c2cncc(F)c2)[C@H](C(=O)NC2CC(F)(F)C2)c2ccccc2Cl)c1`, for which the results for the GI50 in the test on MDA-MB-231 breast, with T-47D breast and in the test with PC-3 prostate were 50.7 µM, over 100 µM and over 100 µM, respectively. The TGI with MDA-MB-231 breast, with T-47D breast and in the test with PC-3 prostate was over 100 µM in each case.
`CC1=C(C(=O)Nc2ccc(Cl)c(Cl)c2)C(c2ccco2)C(C(=O)Nc2ccc(Cl)c(Cl)c2)=C(C)N1`: the TGI amounted to 23.4 µM in the test with DLD-1 colon and 22.2 µM with DMS 114 small cell lung.
On to `COc1ccc2c(c1)CC[C@@H]1[C@@H]2CC[C@]2(C)C(c3ccco3)=C(C=O)C[C@@H]12`, for which the GI50 was 10.8 µM with MDA-MB-231 breast, 18.8 µM with T-47D breast and 5.66 µM in the test on PC-3 prostate. Also, the TGI with MDA-MB-231 breast is 30.7 µM; in the test with T-47D breast, 92.3 µM; in the test with PC-3 prostate, 37.3 µM.
`COc1ccc2c(c1)CCC1C2CC[C@]2(C)/C(=N/OC(=O)Cc3ccccc3)CCC12` (some centres not stated): the GI50 in the test with MDA-MB-231 breast is 17.3 µM; in the test on T-47D breast, 19.5 µM; with PC-3 prostate it was 18.5 µM. Further, the TGI in the test with MDA-MB-231 breast worked out at 38.6 µM; in the test with T-47D breast it was 52.2 µM; in the test with PC-3 prostate, 59.4 µM.
Turning to `COc1ccc(/C=C/c2n[nH]c3ccc(N4CCOC4=O)cc23)cc1`, the GI50 was 2.98 µM with MDA-MB-231 breast, 3.01 µM in the test on T-47D breast and 3.22 µM in the test on PC-3 prostate. The TGI in the test with MDA-MB-231 breast worked out at 9.8 µM; in the test on T-47D breast it was 8.56 µM; in the test on PC-3 prostate, 11.2 µM.
For the molecule `COc1ccc(NC(=O)c2sc3nc(C)c(C(O)c4ccccc4)cc3c2N)cc1` (configuration not stated), the GI50 is 2.96 µM in the test with MDA-MB-231 breast, 3.36 µM in the test on T-47D breast and 3.31 µM in the test with PC-3 prostate. Further, the values for the TGI with MDA-MB-231 breast, with T-47D breast and with PC-3 prostate were over 100 µM, 98.3 µM and over 100 µM, respectively.
On to `Nc1nc2nc[nH]c2c(=O)[nH]1`, for which, in the test with DLD-1 colon, the TGI was over 100 µM.
For the molecule `NCCC(O)(P(=O)(O)O)P(=O)(O)O`, in the test on MDA-MB-231 breast, the GI50 is over 100 µM and the TGI is over 100 µM. Besides, in the test on T-47D breast, the GI50 was over 100 µM and the TGI is over 100 µM.
As for `NS(=O)(=O)c1ccc(CCN=C=S)cc1`, the GI50 with MDA-MB-231 breast is 2.03 µM; with T-47D breast it was 0.638 µM; in the test on PC-3 prostate it was 2.03 µM. Besides, the figures for the TGI with MDA-MB-231 breast, in the test with T-47D breast and in the test with PC-3 prostate were 4.4 µM, 3.36 µM and 5.23 µM, respectively.
For the molecule `COC1=CC(c2ccc[nH]2)=N/C1=C\c1ccc[nH]1`, the GI50 is 0.11 µM in the test on MDA-MB-231 breast, 0.151 µM with T-47D breast and 0.158 µM with PC-3 prostate. In addition, the TGI with MDA-MB-231 breast came to 14.6 µM; in the test on T-47D breast, 1.77 µM; in the test with PC-3 prostate, 13.6 µM.
In the case of `COc1ccc(/C(C)=N/OC(=O)c2c(-c3ccccc3Cl)noc2C)cc1CN1CCOCC1`, the TGI amounted to 66.5 µM in the test on MDA-MB-231 breast, 71 µM with T-47D breast, 98.1 µM in the test with PC-3 prostate and 39.9 µM in the test with MDA-N.
For the molecule `NCc1nnn(Cc2ccccc2)c1N`, the TGI in the test on MDA-MB-231 breast, with T-47D breast, in the test on PC-3 prostate and with MDA-N was over 100 µM in each case.
Take `COc1ccc2nc3ccccc3c(NCCCCCCN(C)CCCl)c2c1`: the TGI in the test with DMS 114 small cell lung was 1.69 µM.
In the case of `COc1cc(/C=C2\COc3ccc(O)c(O)c3C2=O)cc(OC)c1`, the GI50 in the test on MDA-MB-231 breast is 2.47 µM; in the test with T-47D breast, 1.45 µM; with PC-3 prostate, 1.61 µM. Also, the TGI with MDA-MB-231 breast was determined as 10.6 µM; in the test on T-47D breast it was 8 µM; with PC-3 prostate, 7.85 µM.
With `COC1=CC(c2ccc[nH]2)=N/C1=C\c1[nH]c(C)c(C(=O)CCCCC(=O)Nc2ccccc2)c1C`, the GI50 is 0.396 µM with MDA-MB-231 breast, 1.99 µM in the test on T-47D breast and 1.15 µM in the test with PC-3 prostate. Further, the TGI with MDA-MB-231 breast was found to be 1.95 µM; in the test on T-47D breast it was 6.14 µM; in the test on PC-3 prostate it was 2.43 µM.
For the molecule `COC(=O)C1=C(C(=O)OC)C23C=C(C)C1C2=C(C)C1(CC1)[C@@](C)(O)C3=O` (some centres not stated), the values for the GI50 in the test with MDA-MB-231 breast, in the test on T-47D breast and in the test on PC-3 prostate were 0.309 µM, 0.515 µM and 0.386 µM, respectively. In addition, the TGI with MDA-MB-231 breast was determined as 1.56 µM; in the test on T-47D breast it was 6.4 µM; with PC-3 prostate, 32.9 µM.
As to `COC(=O)[C@]1(C)CCC[C@@]2(C)C1CCC1=CC3(C(C)C)CCC12OO3` (some centres not stated), in the test on DLD-1 colon, the TGI is over 100 µM.
Consider `C=C(C)[C@@H]1CC[C@]2(C)[C@H](CC[C@@H]3[C@H]4[C@H]5OC[C@@]4(CCC5(C)C)CC[C@]32C)[C@@]1(C)CCCN`, for which the GI50 was 1.84 µM in the test with MDA-MB-231 breast, 1.88 µM in the test on T-47D breast and 1.74 µM in the test with PC-3 prostate. Moreover, the TGI with MDA-MB-231 breast came out at 3.54 µM; in the test on T-47D breast, 4.21 µM; in the test on PC-3 prostate it was 3.29 µM.
In the test with DLD-1 colon, `CC(C)=CC(=O)Cc1nc2cc(C)c(C)cc2[nH]c1=O` had a TGI of over 100 µM.
On to `CCCN(CCC)c1ccc(/C=N/NC(=O)c2cccnc2)c(Cl)c1`, for which the GI50 in the test on MDA-MB-231 breast was 12.4 µM; with T-47D breast, 1.07 µM; in the test on PC-3 prostate it was 14.1 µM. The TGI in the test with MDA-MB-231 breast was 28.5 µM; in the test on T-47D breast, 13.9 µM; in the test on PC-3 prostate it was over 81.3 µM.
